Assay results taken from publication PMC6979384, “Characterization of the plant homeodomain (PHD) reader family for their histone tail interactions” (Epigenetics & Chromatin, 2020).
Where no end group is shown, it is not given here. [ ]: non-standard residue; d: D form. Lys(Me) = CNCCCC[C@H](N)C(=O)O

What was measured:
Assay in all cases: Histone peptide microarray
Format in all cases: binding, human
Settings in all cases: total n = 4
PHF21A = tested on: PHF21A
Outline: (§1)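 Recombinant GST-PHD protein at 0.5 μM; 293-member modified histone peptide array; signals averaged from four repeats ± SD.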

CHD5 (PCC) = tested on: CHD5 (PCC)
Outline: as §1

MORC3 (CW) = tested on: MORC3 (CW)
Outline: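 Binding read as mean relative signal from 4 replicates; microarray held 293 synthetic histone peptides with single or combinatorial PTMs. Each GST-tagged PHD reader was applied at 0.5 μM using the optimized Petell protocol.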

PHF8 = tested on: PHF8
Outline: as §1

ING2 = tested on: ING2
Outline: as §1

BPTF (PB) = tested on: BPTF (PB)
Outline: as §1

RAG2 = tested on: RAG2
Outline: as §1

ING3 = tested on: ING3
Outline: as §1

DPF2 (PPC2W2) = tested on: DPF2 (PPC2W2)
Outline: as §1

PHF2 = tested on: PHF2
Outline: as §1

PHF23 = tested on: PHF23
Outline: as §1

CHD5 (PPCC) = tested on: CHD5 (PPCC)
Outline: as §1

KDM5B (3) = tested on: KDM5B (3)
Outline: as §1

BAZ2B = tested on: BAZ2B
Outline: as §1

AIRE (PP) = tested on: AIRE (PP)
Outline: as §1

SP140L = tested on: SP140L
Outline: as §1

TRIM66 (PB) = tested on: TRIM66 (PB)
Outline: as §1

KDM5A (3) = tested on: KDM5A (3)
Outline: as §1

ING4 = tested on: ING4
Outline: as §1

PHF13 = tested on: PHF13
Outline: as §1

KDM5A (1) = tested on: KDM5A (1)
Outline: as §1

PHRF1 (RP) = tested on: PHRF1 (RP)
Outline: as §1

CHD4 (PPCC) = tested on: CHD4 (PPCC)
Outline: as §1

KDM4C (TTP) = tested on: KDM4C (TTP)
Outline: as §1

ING5 = tested on: ING5
Outline: as §1

KDM7A = tested on: KDM7A
Outline: as §1

KDM5B (1) = tested on: KDM5B (1)
Outline: as §1

DIDO1 = tested on: DIDO1
Outline: as §1

MLL5 = tested on: MLL5
Outline: as §1

TAF3 = tested on: TAF3
Outline: as §1

ING1 = tested on: ING1
Outline: as §1

[1] = sheet "Array Heatmap", GST-tagged reader, histone peptide array

With “H3K79me1: H3 74-84 (IAQDF[Lys(Me)]TDLRF; UniProt P68431 75-85, looked up, fragment) [Peptide H3K79me1]” the “Array Heatmap signal, PHF21A” value (PHF21A; [1]) was 0.4933, the “Array Heatmap signal, CHD5 (PCC)” value (CHD5 (PCC); [1]) was 0.8253 and the “Array Heatmap signal, MORC3 (CW)” value (MORC3 (CW); [1]) was 0.4301. The “Array Heatmap signal, PHF8” value (PHF8; [1]) was 0.4078, the “Array Heatmap signal, ING2” value (ING2; [1]) was 0.6117 and the “Array Heatmap signal, BPTF (PB)” value (BPTF (PB); [1]) was 0.3836. For the same substance, the “Array Heatmap signal, RAG2” value (RAG2; [1]) was 0.2827, the “Array Heatmap signal, ING3” value (ING3; [1]) was 0.5268 and the “Array Heatmap signal, DPF2 (PPC2W2)” value (DPF2 (PPC2W2); [1]) was 0.6501. For the same substance, the “Array Heatmap signal, PHF2” value (PHF2; [1]) was 0.4403, the “Array Heatmap signal, PHF23” value (PHF23; [1]) was 0.5609 and the “Array Heatmap signal, CHD5 (PPCC)” value (CHD5 (PPCC); [1]) was 0.6031. For the same substance, the “Array Heatmap signal, KDM5B (3)” value (KDM5B (3); [1]) was 0.5123, the “Array Heatmap signal, BAZ2B” value (BAZ2B; [1]) was 0.4958 and the “Array Heatmap signal, AIRE (PP)” value (AIRE (PP); [1]) was 0.5028. For the same substance, the “Array Heatmap signal, SP140L” value (SP140L; [1]) was 0.3558, the “Array Heatmap signal, TRIM66 (PB)” value (TRIM66 (PB); [1]) was 0.6065 and the “Array Heatmap signal, KDM5A (3)” value (KDM5A (3); [1]) was 0.5745. The “Array Heatmap signal, ING4” value (ING4; [1]) was 0.4724, the “Array Heatmap signal, PHF13” value (PHF13; [1]) was 0.6611 and the “Array Heatmap signal, KDM5A (1)” value (KDM5A (1); [1]) was 0.5083. The “Array Heatmap signal, PHRF1 (RP)” value (PHRF1 (RP); [1]) was 0.4478, the “Array Heatmap signal, CHD4 (PPCC)” value (CHD4 (PPCC); [1]) was 0.5797 and the “Array Heatmap signal, KDM4C (TTP)” value (KDM4C (TTP); [1]) was 0.5424. The “Array Heatmap signal, ING5” value (ING5; [1]) was 0.4005, the “Array Heatmap signal, KDM7A” value (KDM7A; [1]) was 0.422 and the “Array Heatmap signal, KDM5B (1)” value (KDM5B (1); [1]) was 0.6942. The “Array Heatmap signal, DIDO1” value (DIDO1; [1]) was 0.782, the “Array Heatmap signal, MLL5” value (MLL5; [1]) was 0.6083 and the “Array Heatmap signal, TAF3” value (TAF3; [1]) was 0.2923. The “Array Heatmap signal, ING1” value (ING1; [1]) was 0.5242.

With H3K4me2 + K9ac + K18ac: H3 1-20 the “Array Heatmap signal (histone peptide microarray)” value (PHF21A; GST-tagged PHF21A, sheet Array Heatmap, each array performed twice) was 0.4382, the “Array Heatmap signal (histone peptide microarray)” value (CHD5 (PCC); GST-tagged CHD5 (PCC = PHD + Dual Chromodomain), sheet Array Heatmap, each array performed twice) was 0.7098 and the “Array Heatmap signal (histone peptide microarray)” value (MORC3 (CW); GST-tagged MORC3 (CW = CW-type Zn-finger), sheet Array Heatmap, each array performed twice) was 0.6581. For the same substance, the “Array Heatmap signal (histone peptide microarray)” value (PHF8; GST-tagged PHF8, sheet Array Heatmap, each array performed twice) was 0.4748, the “Array Heatmap signal (histone peptide microarray)” value (ING2; GST-tagged ING2, sheet Array Heatmap, each array performed twice) was 0.7129 and the “Array Heatmap signal (histone peptide microarray)” value (BPTF (PB); GST-tagged BPTF (PB = PHD + Bromodomain), sheet Array Heatmap, each array performed twice) was 0.3833. The “Array Heatmap signal (histone peptide microarray)” value (RAG2; GST-tagged RAG2, sheet Array Heatmap, each array performed twice) was 0.3927, the “Array Heatmap signal (histone peptide microarray)” value (ING3; GST-tagged ING3, sheet Array Heatmap, each array performed twice) was 0.5192 and the “Array Heatmap signal (histone peptide microarray)” value (DPF2 (PPC2W2); GST-tagged DPF2 (PPC2W2 = Dual PHD + C2W2-type Zn-finger), sheet Array Heatmap, each array performed twice) was 0.6346. For the same substance, the “Array Heatmap signal (histone peptide microarray)” value (PHF2; GST-tagged PHF2, sheet Array Heatmap, each array performed twice) was 0.8135, the “Array Heatmap signal (histone peptide microarray)” value (PHF23; GST-tagged PHF23, sheet Array Heatmap, each array performed twice) was 0.6826 and the “Array Heatmap signal (histone peptide microarray)” value (CHD5 (PPCC); GST-tagged CHD5 (PPCC = Dual PHD + Dual Chromodomain), sheet Array Heatmap, each array performed twice) was 0.5253. The “Array Heatmap signal (histone peptide microarray)” value (KDM5B (3); GST-tagged KDM5B (3), sheet Array Heatmap, each array performed twice) was 0.5774, the “Array Heatmap signal (histone peptide microarray)” value (BAZ2B; GST-tagged BAZ2B, sheet Array Heatmap, each array performed twice) was 0.4481 and the “Array Heatmap signal (histone peptide microarray)” value (AIRE (PP); GST-tagged AIRE (PP), sheet Array Heatmap, each array performed twice) was 0.3953. The “Array Heatmap signal (histone peptide microarray)” value (SP140L; GST-tagged SP140L, sheet Array Heatmap, each array performed twice) was 0.3079, the “Array Heatmap signal (histone peptide microarray)” value (TRIM66 (PB); GST-tagged TRIM66 (PB = PHD + Bromodomain), sheet Array Heatmap, each array performed twice) was 0.6398 and the “Array Heatmap signal (histone peptide microarray)” value (KDM5A (3); GST-tagged KDM5A (3), sheet Array Heatmap, each array performed twice) was 0.7199. The “Array Heatmap signal (histone peptide microarray)” value (ING4; GST-tagged ING4, sheet Array Heatmap, each array performed twice) was 0.4671, the “Array Heatmap signal (histone peptide microarray)” value (PHF13; GST-tagged PHF13, sheet Array Heatmap, each array performed twice) was 0.5893 and the “Array Heatmap signal (histone peptide microarray)” value (KDM5A (1); GST-tagged KDM5A (1), sheet Array Heatmap, each array performed twice) was 0.4202. For the same substance, the “Array Heatmap signal (histone peptide microarray)” value (PHRF1 (RP); GST-tagged PHRF1 (RP), sheet Array Heatmap, each array performed twice) was 0.5931, the “Array Heatmap signal (histone peptide microarray)” value (CHD4 (PPCC); GST-tagged CHD4 (PPCC = Dual PHD + Dual Chromodomain), sheet Array Heatmap, each array performed twice) was 0.5347 and the “Array Heatmap signal (histone peptide microarray)” value (KDM4C (TTP); GST-tagged KDM4C (TTP = Tandem Tudor domain + PHD), sheet Array Heatmap, each array performed twice) was 0.4492. The “Array Heatmap signal (histone peptide microarray)” value (ING5; GST-tagged ING5, sheet Array Heatmap, each array performed twice) was 0.3511, the “Array Heatmap signal (histone peptide microarray)” value (KDM7A; GST-tagged KDM7A, sheet Array Heatmap, each array performed twice) was 0.3188 and the “Array Heatmap signal (histone peptide microarray)” value (KDM5B (1); GST-tagged KDM5B (1), sheet Array Heatmap, each array performed twice) was 0.595. For the same substance, the “Array Heatmap signal (histone peptide microarray)” value (DIDO1; GST-tagged DIDO1, sheet Array Heatmap, each array performed twice) was 0.8235, the “Array Heatmap signal (histone peptide microarray)” value (MLL5; GST-tagged MLL5, sheet Array Heatmap, each array performed twice) was 0.5921 and the “Array Heatmap signal (histone peptide microarray)” value (TAF3; GST-tagged TAF3, sheet Array Heatmap, each array performed twice) was 0.4004. The “Array Heatmap signal (histone peptide microarray)” value (ING1; GST-tagged ING1, sheet Array Heatmap, each array performed twice) was 0.6509.
